Values after ≈ are worked out from the molar mass of the structure shown.
Assays:
[1] = target: T1, Prostaglandin D2 receptor 2 (Homo sapiens, UniProt Q9Y5Y4); test: Antagonist activity at human CRTH2 receptor expressed in […] cells assessed as inhibition of beta arrestin translocation by bioluminescence resonance energy transfer assay; type: functional, cell-based
T1 sequence (Q9Y5Y4 whole entry): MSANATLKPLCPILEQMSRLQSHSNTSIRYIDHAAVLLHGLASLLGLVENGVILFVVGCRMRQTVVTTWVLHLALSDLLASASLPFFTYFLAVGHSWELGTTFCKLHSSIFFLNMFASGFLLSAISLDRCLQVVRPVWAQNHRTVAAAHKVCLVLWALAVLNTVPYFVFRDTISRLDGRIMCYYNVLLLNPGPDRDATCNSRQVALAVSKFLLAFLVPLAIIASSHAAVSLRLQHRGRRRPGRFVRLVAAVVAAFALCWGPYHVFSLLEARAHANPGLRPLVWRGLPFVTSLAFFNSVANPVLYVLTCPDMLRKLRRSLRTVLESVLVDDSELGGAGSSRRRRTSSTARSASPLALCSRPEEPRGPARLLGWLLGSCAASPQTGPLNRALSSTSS

[2] = target: T2, Prostaglandin D2 receptor 2 (Homo sapiens) (UniProt Q9Y5Y4); test: Antagonist activity at human CRTH2 receptor expressed in […] cells assessed as inhibition of beta arrestin translocation by bioluminescence resonance energy transfer assay relative to control; type: functional, cell-based
T2 sequence (whole entry): T1 sequence (Q9Y5Y4 whole entry)

[3] = target: T1, Prostaglandin D2 receptor 2; test: Displacement of[3H]PGD2 from human CRTH2 receptor expressed in african green monkey COS7 cells; type: cell-based, COS-7
CYP2D6 = CYP2D6 (Homo sapiens, UniProt P10635); test: Inhibition of CYP2D6 at 1 uM; type: ADME
[4] = Clearance in rat; type: ADME, organism-based; settings: in vivo
[5] = Aqueous solubility at pH 1; type: physicochemical
[6] = Octanol-water distribution coefficient, log D at pH 7.4; type: physicochemical
[7] = Metabolic stability in rat liver S9 fraction assessed as compound remaining; type: ADME, subcellular
[8] = Half life in rat; type: ADME, organism-based; settings: in vivo
CYP3A4 = CYP3A4 (Homo sapiens, UniProt P08684); test: Inhibition of CYP3A4 at 1 uM; type: ADME
[9] = Bioavailability in rat; type: ADME, organism-based; settings: in vivo
[10] = target: T1, Prostaglandin D2 receptor 2; test: Displacement of[3H]PGD2 from human CRTH2 receptor expressed in […] cells; type: cell-based
[11] = Metabolic stability in human liver S9 fraction assessed as compound remaining; type: ADME, subcellular
[12] = target: T3, Polyunsaturated fatty acid lipoxygenase ALOX12 (Homo sapiens) (UniProt P18054); test: Inhibition of 12-lipoxygenase at 10 uM
T3 sequence (whole entry): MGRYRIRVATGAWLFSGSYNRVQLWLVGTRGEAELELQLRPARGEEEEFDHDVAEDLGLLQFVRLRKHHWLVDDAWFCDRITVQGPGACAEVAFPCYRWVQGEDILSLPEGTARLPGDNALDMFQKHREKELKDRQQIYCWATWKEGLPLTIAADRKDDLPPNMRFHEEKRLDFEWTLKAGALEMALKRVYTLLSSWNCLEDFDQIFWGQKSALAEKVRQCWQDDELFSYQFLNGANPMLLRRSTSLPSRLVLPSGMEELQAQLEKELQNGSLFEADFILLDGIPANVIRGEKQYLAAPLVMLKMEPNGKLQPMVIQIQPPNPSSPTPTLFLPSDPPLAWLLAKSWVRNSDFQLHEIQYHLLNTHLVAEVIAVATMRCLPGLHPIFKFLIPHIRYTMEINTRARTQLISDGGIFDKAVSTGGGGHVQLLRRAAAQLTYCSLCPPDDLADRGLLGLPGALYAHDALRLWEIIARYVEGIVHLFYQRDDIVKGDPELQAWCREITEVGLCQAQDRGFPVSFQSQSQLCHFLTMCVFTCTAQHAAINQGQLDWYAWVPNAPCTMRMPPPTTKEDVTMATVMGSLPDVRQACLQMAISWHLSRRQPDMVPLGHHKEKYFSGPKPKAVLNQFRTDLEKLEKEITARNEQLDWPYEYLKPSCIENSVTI

[13] = target: Prostaglandin G/H synthase 1 (Homo sapiens) (UniProt P23219); test: Inhibition of COX1 at 10 uM
[14] = target: T4, Prostaglandin G/H synthase 2 (Homo sapiens) (UniProt P35354); test: Inhibition of COX2 at 10 uM
T4 sequence (whole entry): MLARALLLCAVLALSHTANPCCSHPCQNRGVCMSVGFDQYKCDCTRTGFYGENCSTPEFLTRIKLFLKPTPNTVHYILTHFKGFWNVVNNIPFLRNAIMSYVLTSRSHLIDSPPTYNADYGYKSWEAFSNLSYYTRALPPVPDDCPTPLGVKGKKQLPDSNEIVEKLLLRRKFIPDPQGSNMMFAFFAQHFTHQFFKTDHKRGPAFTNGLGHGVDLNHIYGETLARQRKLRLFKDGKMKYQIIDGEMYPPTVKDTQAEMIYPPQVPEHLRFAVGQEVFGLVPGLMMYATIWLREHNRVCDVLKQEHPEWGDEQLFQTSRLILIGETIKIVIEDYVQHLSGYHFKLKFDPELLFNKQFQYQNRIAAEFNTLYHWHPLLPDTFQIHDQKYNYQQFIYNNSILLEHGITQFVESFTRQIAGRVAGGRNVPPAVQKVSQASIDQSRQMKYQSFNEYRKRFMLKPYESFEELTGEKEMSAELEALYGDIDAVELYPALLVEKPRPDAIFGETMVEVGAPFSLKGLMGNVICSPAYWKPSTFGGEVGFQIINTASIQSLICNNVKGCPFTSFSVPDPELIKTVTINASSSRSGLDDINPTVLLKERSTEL

[15] = Aqueous solubility at pH 7.4; type: physicochemical
[16] = target: Phospholipase A2 (Homo sapiens) (UniProt P04054); test: Inhibition of PLA2 at 10 uM
[17] = Permeability apical to basolateral side in human Caco-2 cells; type: ADME, cell-based; settings: read-out: permeability
[18] = target: T5, Prostaglandin D2 receptor (Homo sapiens, UniProt Q13258); test: Inhibition of DP1 receptor
T5 sequence (Q13258 whole entry): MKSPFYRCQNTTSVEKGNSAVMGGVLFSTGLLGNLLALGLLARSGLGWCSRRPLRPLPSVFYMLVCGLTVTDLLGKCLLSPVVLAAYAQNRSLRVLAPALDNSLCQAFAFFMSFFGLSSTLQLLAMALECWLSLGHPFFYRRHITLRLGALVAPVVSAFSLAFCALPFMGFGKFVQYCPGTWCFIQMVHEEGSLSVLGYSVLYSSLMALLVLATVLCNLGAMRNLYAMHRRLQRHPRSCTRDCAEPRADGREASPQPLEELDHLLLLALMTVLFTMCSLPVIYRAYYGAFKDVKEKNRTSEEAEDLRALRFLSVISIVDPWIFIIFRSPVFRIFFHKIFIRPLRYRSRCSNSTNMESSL

[19] = target: T6, Polyunsaturated fatty acid lipoxygenase ALOX15 (Homo sapiens) (UniProt P16050); test: Inhibition of 15-lipoxygenase at 10 uM
T6 sequence (whole entry): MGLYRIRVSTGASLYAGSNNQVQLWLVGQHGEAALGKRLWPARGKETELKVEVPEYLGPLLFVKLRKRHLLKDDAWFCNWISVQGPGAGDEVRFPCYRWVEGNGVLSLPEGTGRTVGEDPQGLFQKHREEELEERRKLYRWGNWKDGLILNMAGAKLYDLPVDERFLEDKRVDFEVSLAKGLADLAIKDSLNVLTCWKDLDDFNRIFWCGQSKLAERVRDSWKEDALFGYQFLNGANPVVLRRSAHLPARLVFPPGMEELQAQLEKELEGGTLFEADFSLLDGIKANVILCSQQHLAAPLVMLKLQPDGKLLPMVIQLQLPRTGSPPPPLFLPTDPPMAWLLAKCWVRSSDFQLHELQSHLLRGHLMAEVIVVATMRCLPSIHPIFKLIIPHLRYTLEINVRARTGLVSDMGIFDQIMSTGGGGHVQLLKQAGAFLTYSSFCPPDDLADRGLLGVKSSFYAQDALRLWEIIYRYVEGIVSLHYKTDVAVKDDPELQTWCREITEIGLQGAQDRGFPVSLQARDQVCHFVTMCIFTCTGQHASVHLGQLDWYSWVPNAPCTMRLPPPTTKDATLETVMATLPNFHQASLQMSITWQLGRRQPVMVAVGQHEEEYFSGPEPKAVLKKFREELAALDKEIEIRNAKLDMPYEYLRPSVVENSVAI

Chain of CYP2D6 (P10635 whole entry): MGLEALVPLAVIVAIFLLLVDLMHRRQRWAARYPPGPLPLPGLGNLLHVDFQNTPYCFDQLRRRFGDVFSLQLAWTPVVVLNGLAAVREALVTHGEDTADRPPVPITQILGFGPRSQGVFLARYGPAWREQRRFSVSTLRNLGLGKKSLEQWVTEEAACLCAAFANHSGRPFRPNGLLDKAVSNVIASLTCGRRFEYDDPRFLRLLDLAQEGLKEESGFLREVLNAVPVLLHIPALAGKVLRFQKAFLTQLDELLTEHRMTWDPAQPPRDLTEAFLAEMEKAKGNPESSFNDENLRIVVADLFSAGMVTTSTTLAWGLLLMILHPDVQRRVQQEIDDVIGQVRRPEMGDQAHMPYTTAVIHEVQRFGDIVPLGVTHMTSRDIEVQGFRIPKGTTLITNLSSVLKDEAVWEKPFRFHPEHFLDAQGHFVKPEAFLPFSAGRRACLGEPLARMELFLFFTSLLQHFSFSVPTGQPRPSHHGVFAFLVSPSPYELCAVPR
Chain of CYP3A4 (P08684 whole entry): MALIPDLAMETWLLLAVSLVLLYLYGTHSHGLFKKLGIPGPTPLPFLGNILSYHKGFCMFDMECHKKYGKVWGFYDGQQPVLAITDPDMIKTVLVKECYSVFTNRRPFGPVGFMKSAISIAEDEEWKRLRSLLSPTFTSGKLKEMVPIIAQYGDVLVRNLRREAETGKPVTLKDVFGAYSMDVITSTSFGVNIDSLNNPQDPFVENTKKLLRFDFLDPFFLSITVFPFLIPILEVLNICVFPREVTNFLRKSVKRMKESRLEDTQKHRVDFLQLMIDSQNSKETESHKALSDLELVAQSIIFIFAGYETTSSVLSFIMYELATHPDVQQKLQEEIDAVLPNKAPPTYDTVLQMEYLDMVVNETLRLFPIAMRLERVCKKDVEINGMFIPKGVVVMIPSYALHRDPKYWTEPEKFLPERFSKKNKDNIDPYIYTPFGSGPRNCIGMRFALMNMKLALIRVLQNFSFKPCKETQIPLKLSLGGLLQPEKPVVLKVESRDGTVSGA
Chain of Prostaglandin G/H synthase 1 (Homo sapiens) (P23219 whole entry): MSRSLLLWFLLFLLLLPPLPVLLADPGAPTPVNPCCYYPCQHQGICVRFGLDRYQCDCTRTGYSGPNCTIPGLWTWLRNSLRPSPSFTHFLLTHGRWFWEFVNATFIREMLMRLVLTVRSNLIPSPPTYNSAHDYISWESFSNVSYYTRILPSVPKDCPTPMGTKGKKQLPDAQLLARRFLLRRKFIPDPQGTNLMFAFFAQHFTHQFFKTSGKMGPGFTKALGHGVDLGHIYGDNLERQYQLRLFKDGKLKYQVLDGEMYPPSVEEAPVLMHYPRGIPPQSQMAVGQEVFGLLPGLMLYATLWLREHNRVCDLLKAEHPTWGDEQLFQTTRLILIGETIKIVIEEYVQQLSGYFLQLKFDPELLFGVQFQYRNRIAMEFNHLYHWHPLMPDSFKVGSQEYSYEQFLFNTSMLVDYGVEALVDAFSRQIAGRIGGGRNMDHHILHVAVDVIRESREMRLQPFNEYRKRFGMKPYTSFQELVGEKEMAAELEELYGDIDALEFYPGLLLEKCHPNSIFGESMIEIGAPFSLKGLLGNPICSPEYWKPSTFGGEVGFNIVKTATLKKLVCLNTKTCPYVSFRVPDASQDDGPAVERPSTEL
Chain of Phospholipase A2 (Homo sapiens) (P04054 23-148 limits assumed): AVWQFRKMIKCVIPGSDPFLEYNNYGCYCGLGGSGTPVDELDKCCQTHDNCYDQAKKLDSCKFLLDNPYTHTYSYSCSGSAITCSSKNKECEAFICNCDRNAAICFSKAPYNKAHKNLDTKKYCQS

SMILES | IC50 [1] | Efficacy [2] | IC50 [10] | further results
O=C(O)Cc1sc(-c2ccco2)nc1-c1ccc(Cl)cc1 | 3.8 µM | 50% | – | IC50 [3]: 0.55 µM
COc1ccc(C(c2ccccc2)c2nc(-c3ccc(F)cc3)c(CC(=O)O)s2)cc1 (stereo unspecified) | 0.031 µM | 80% | 0.0036 µM | inhibition at 1 µM (CYP2D6): 5.8%; clearance [4]: 4.2 L/h/kg; solubility [5]: 40 µM (≈ 17.3 µg/mL); logD [6]: 3; Stability [7]: 0%; half-life [8]: 8.5 h; inhibition at 1 µM (CYP3A4): 4.4%; bioavailability [9]: 81%; Stability [11]: 3.3%
O=C(O)Cc1sc(C(c2ccccc2)c2ccccc2)nc1-c1ccc(Cl)cc1 | 0.06 µM | 50% | 0.014 µM | inhibition [12]: 20%; inhibition [13]: 20%; inhibition at 1 µM (CYP2D6): 97.8%; clearance [4]: 1.62 L/h/kg; inhibition [14]: 20%; solubility [5]: 197 µM (≈ 82.7 µg/mL); solubility [15]: 154 µM (≈ 64.7 µg/mL); Stability [7]: 2.1%; half-life [8]: 24 h; inhibition at 1 µM (CYP3A4): 69%; inhibition [16]: 20%; Papp A→B [17]: 26 nm/s; bioavailability [9]: 62%; IC50 [18]: 100 µM; Stability [11]: 98.5%; inhibition [19]: 20%
COc1ccc(Cl)cc1-c1nc(C(c2ccccc2)c2ccccc2)sc1CC(=O)O | > 100 µM | 80% | 9.4 µM | –
CNc1cc(-c2nc(C(c3ccc(F)cc3)c3ccc(F)cc3)sc2CC(=O)O)ccn1 | 0.17 µM | 80% | 0.025 µM | –
O=C(O)Cc1sc(C(c2ccc(F)cc2)c2ccc(F)cc2)nc1-c1cccc(F)c1 | 0.018 µM | 80% | 0.0014 µM | –
Cc1nc(-c2ccc(Cl)cc2)c(CC(=O)O)s1 | 41 µM | 50% | – | IC50 [3]: 5.5 µM
Nc1cc(-c2nc(C(c3ccc(F)cc3)c3ccc(F)cc3)sc2CC(=O)O)cc(F)n1 | 1.4 µM | 30% | 0.22 µM | –
O=C(O)Cc1sc(C(c2ccc(F)cc2)c2ccc(F)cc2)nc1-c1cc(F)cc(F)c1 | 0.34 µM | 80% | 0.035 µM | –
N#Cc1ccc(-c2nc(C(c3ccc(F)cc3)c3ccc(F)cc3)sc2CC(=O)O)cc1 | 1.5 µM | 30% | 0.15 µM | –
O=C(O)Cc1sc(C(c2ccc(F)cc2)c2ccc(F)cc2)nc1-c1ccnc(F)c1 | 0.0047 µM | 80% | 0.00048 µM | –
Nc1ccc(-c2nc(C(c3ccc(F)cc3)c3ccc(F)cc3)sc2CC(=O)O)cn1 | 0.5 µM | 60% | 0.1 µM | –
Nc1nc(-c2ccc(Cl)cc2)c(CC(=O)O)s1 | > 100 µM | 50% | > 100 µM | –
O=C(O)Cc1sc(C(c2ccc(F)cc2)c2ccc(F)cc2)nc1-c1ccoc1 | 0.13 µM | 80% | 0.014 µM | –
O=C(O)Cc1sc(C(c2ccc(F)cc2)c2ccc(F)cc2)nc1-c1ccco1 | 0.14 µM | 80% | 0.018 µM | –
O=C(O)Cc1sc(C(c2ccccc2)c2ccccc2)nc1-c1ccc(F)c(F)c1 | 0.043 µM | 80% | 0.0041 µM | –
O=C(O)Cc1sc(C(c2ccc(F)cc2)c2ccc(F)cc2)nc1-c1ccnc(Cl)c1 | 0.039 µM | 80% | 0.0031 µM | –

From ChEMBL document CHEMBL1158509, “Novel selective thiazoleacetic acids as CRTH2 antagonists developed from in silico derived hits. Part 2” (Bioorg Med Chem Lett, 2010)
